What was measured:
CDK9/CycT1 = target: T1, CDK9/CycT1 (Homo sapiens, UniProt P50750); assay: CDK9/CycT1 high ATP kinase assay (TR-FRET, 2 mM ATP); type: biochemical; details: for IC50: 2 mM ATP, Method 1b, lower limit for IC50s about 1-2 nM; for Selectivity high ATP CDK9 over high ATP CDK2: IC50 (high ATP CDK2)/IC50 (high ATP CDK9): ratio from Methods 1b and 2b, minimal values for IC50s near the assay limit
T1 construct: Recombinant full-length His-tagged human CDK9 and CycT1; His; purchased Life Technologies PV4131; host or cells: insect cells
Method in brief: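 Full-length His-tagged human CDK9/CycT1 from insect cells (about 0.5 μg/ml) was preincubated with compound for 15 min at 22° C in 50 mM Tris/HCl pH 8.0, 10 mM MgCl2, 1.0 mM DTT. Phosphorylation was detected by TR-FRET with anti-RB(pSer807/pSer811) antibody, as the 665/622 nm ratio normalised to no-inhibitor and no-enzyme controls.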

HeLa cells = assay: Proliferation assay, HeLa; type: cell-based; details: Homo sapiens, 96 h, 4 days, crystal violet, read-out: Inhibition of HeLa cell proliferation IC50
Method: (§1) Cultivated tumour cells (HeLa, human cervical tumour cells, ATCC CCL-2; NCI-H460, human non-small cell lung carcinoma cells, ATCC HTB-177; DU 145, hormone-independent human prostate carcinoma cells, ATCC HTB-81; HeLa-MaTu-ADR, multidrug-resistant human cervical carcinoma cells, EPO-GmbH Berlin; Caco-2, human colorectal carcinoma cells, ATCC HTB-37; B16F10, mouse melanoma cells, ATCC CRL-6475) were plated at a density of 5,000 cells/well (DU145, HeLa-MaTu-ADR), 3,000 cells/well (NCI-H460, HeLa), 1,500 cells/well (Caco-2), or 1,000 cells/well (B16F10) in a 96-well multititer plate in 200 μL of their respective growth medium supplemented 10% fetal calf serum. After 24 hours, the cells of one plate (zero-point plate) were stained with crystal violet (see below), while the medium of the other plates was supplemented with the test substances in various concentrations (0 μM, as well as in the range of 0.0001-10 μM; the final concentration of the solvent dimethyl sulfoxide was adjusted to 0.1%) using a Hewlett-Packard HP D300 Digital Dispenser. The cells were incubated for 4 days in the presence of test substances. Cell proliferation was determined by staining the cells with crystal violet: the cells were fixed by adding 20 μl/measuring point of an 11% glutaric aldehyde solution for 15 minutes at room temperature. After three washing cycles of the fixed cells with water, the plates were dried at room temperature. The cells were stained by adding 100 μl/measuring point of a 0.1% crystal violet solution (pH 3.0). After three washing cycles of the stained cells with water, the plates were dried at room temperature. The dye was dissolved by adding 100 μl/measuring point of a 10% acetic acid solution. The extinction was determined by photometry at a wavelength of 595 nm. The change of cell number, in percent, was calculated by normalization of the measured values to the extinction values of the zero-point plate (=0%) and the extinction of the untreated ([…]) cells (=100%). The IC50 values (inhibitory concentration at 50% of maximal effect) were determined by means of a 4 parameter fit. A2780 human ovarian carcinoma cells (ECACC #93112519) and non-adherent MOLM-13 human acute myeloid leukemia cells (DSMZ ACC 554) were seeded at a density of 3,000 cell/well (A2780) or 5,000 cells/well (MOLM-13) in a 96-well multititer plate in 150 μL of growth medium supplemented 10% fetal calf serum. After 24 hours, cell viability of one plate (zero-point plate) was determined with the Cell Titre-Glo Luminescent Cell Viability Assay (Promega), while the medium of the other plates was supplemented with the test substances in various concentrations (0 μM, as well as in the range of 0.0001-10 μM; the final concentration of the solvent dimethyl sulfoxide was adjusted to 0.1%) using a Hewlett-Packard HP D300 Digital Dispenser. Cell viability was assessed after 72-hour exposure with the Cell Titre-Glo Luminescent Cell Viability Assay (Promega). IC50 values (inhibitory concentration at 50% of maximal effect) were determined by means of a 4 parameter fit on measurement data which were normalized to vehicle (DMSO) treated cells (=100%) and measurement readings taken immediately before compound exposure (=0%).

HeLa-MaTu-ADR cells = assay: Proliferation assay, HeLa-MaTu-ADR; type: cell-based; details: Homo sapiens, 96 h; 4 days, crystal violet; read-out: Inhibition of HeLa-MaTu-ADR cell proliferation IC50
Method: as §1

B16F10 cells = assay: Proliferation assay, B16F10; type: cell-based; details: Mus musculus, B16-F10, 96 h; 4 days, crystal violet; read-out: Inhibition of B16F10 cell proliferation IC50
Method: as §1

MOLM-13 cells = assay: Proliferation assay, MOLM-13; type: cell-based; details: Homo sapiens, 72-hour exposure, Cell Titre-Glo, read-out: Inhibition of MOLM-13 cell proliferation IC50
Method: as §1

T1 sequence (P50750 whole entry): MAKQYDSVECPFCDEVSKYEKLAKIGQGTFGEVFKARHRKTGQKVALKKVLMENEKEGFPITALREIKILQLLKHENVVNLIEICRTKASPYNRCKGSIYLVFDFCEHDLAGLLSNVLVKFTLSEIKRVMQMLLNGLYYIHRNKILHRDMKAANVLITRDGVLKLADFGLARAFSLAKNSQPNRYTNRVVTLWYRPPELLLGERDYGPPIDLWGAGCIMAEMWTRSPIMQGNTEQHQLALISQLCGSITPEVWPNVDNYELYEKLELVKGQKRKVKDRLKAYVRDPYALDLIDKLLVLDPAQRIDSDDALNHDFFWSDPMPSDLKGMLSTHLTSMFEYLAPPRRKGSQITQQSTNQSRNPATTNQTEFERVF
T1 sequence (O60563 whole entry partner): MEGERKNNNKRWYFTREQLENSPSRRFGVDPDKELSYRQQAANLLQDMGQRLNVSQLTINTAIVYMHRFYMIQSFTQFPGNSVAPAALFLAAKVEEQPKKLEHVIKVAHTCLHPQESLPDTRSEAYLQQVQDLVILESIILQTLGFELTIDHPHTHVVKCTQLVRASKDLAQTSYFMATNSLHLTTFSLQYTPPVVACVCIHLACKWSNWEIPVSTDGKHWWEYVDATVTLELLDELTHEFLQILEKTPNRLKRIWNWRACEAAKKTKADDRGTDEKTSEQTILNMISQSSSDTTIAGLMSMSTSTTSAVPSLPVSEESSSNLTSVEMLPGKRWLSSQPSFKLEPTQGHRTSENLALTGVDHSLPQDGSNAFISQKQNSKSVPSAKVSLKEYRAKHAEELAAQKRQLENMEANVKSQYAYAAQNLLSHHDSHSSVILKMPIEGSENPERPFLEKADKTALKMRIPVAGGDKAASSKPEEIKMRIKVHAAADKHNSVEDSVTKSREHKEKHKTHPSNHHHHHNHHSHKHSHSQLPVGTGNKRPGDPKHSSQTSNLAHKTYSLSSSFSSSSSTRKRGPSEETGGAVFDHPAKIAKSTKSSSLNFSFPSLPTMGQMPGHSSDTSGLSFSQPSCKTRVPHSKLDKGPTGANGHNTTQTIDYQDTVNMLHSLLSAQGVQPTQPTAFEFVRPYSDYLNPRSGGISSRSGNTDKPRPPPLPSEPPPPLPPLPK

Compound | IC50 (CDK9/CycT1) [nM] | Selectivity high ATP CDK9 over high ATP CDK2: IC50 (high ATP CDK2)/IC50 (high ATP CDK9) (CDK9/CycT1) | IC50 (HeLa cells) [nM] | IC50 (HeLa-MaTu-ADR cells) [nM] | IC50 (B16F10 cells) [nM] | IC50 (MOLM-13 cells) [nM]
CS(=N)(=O)Cc1cc2nc(c1)OCCCCOc1cc(ccc1F)-c1cc(ncc1F)N2 (racemic) [Example 2, (rac)-3,20-difluoro-10-[(S-methylsulfonimidoyl)methyl]-13,18-dioxa-5,7,24-triazatetracyclo[17.3.1.1^2,6.1^8,12]pentacosa-1(23),2(25),3,5,8(24),9,11,19,21-nonaene] | 7 | 105 | 90 | 78 | 110 | 27
CC(C)(C)OC(=O)N=S(C)(=O)Cc1cc2cc(c1)OCCCCOc1cc(ccc1F)-c1nc(ncc1F)N2 (racemic) [Example 3, (rac)-tert-butyl [{[3,20-difluoro-13,18-dioxa-5,7,25-triazatetracyclo[17.3.1.1^2,6.1^8,12]pentacosa-1(23),2(25),3,5,8(24),9,11,19,21-nonaen-10-yl]methyl}(methyl)oxido-λ^6-sulfanylidene]carbamate] | 5 | >4000 | 244 | 218 | 270 | 108
CS(=N)(=O)Cc1cc2cc(c1)OCCCCOc1cc(ccc1F)-c1nc(ncc1F)N2 (racemic) [Example 4, (rac)-3,20-difluoro-10-[(S-methylsulfonimidoyl)methyl]-13,18-dioxa-5,7,25-triazatetracyclo[17.3.1.1^2,6.1^8,12]pentacosa-1(23),2(25),3,5,8(24),9,11,19,21-nonaene] | 3 | 513 | 150 | 140 | 176 | 20
CC(C)(C)OC(=O)N=S(C)(=O)Cc1cc2cc(c1)OCCCCCOc1cc(ccc1F)-c1nc(ncc1F)N2 (racemic) [Example 5, (rac)-tert-butyl [{[3,21-difluoro-13,19-dioxa-5,7,26-triazatetracyclo[18.3.1.1^2,6.1^8,12]hexacosa-1(24),2(26),3,5,8(25),9,11,20,22-nonaen-10-yl]methyl}(methyl)oxido-λ^6-sulfanylidene]carbamate] | 24 | >833 | 964 | 1000 | 993 | 228
CS(=N)(=O)Cc1cc2cc(c1)OCCCCCOc1cc(ccc1F)-c1nc(ncc1F)N2 (racemic) [Example 6, (rac)-3,21-difluoro-10-[(S-methylsulfonimidoyl)methyl]-13,19-dioxa-5,7,26-triazatetracyclo[18.3.1.1^2,6.1^8,12]hexacosa-1(24),2(26),3,5,8(25),9,11,20,22-nonaene] | 5 | 3240 | 199 | 169 | 171 | 140
CS(=N)(=O)Cc1cc2cc(c1)OCCCCOc1c(F)ccc(c1F)-c1nc(ncc1F)N2 (racemic) [Example 8, (rac)-3,20,23-trifluoro-10-[(S-methylsulfonimidoyl)methyl]-13,18-dioxa-5,7,25-triazatetracyclo[17.3.1.1^2,6.1^8,12]pentacosa-1(23),2(25),3,5,8(24),9,11,19,21-nonaene] | 17 | 385 | 177 | 179 | 224 | 45
CS(=N)(=O)Cc1cc2cc(c1)OCCCOc1cc(ccc1F)-c1nc(ncc1F)N2 (racemic) [Example 10, (rac)-3,19-difluoro-10-[(S-methylsulfonimidoyl)methyl]-13,17-dioxa-5,7,24-triazatetracyclo[16.3.1.1^2,6.1^8,12]tetracosa-1(22),2(24),3,5,8(23),9,11,18,20-nonaene] | 25 | 190 | 128 | 155 | 209 | 33
CC1CCCOc2cc(ccc2F)-c2cc(ncc2F)Nc2cc(CS(C)(=O)=O)cc(n2)O1 (racemic) [Example 28, 3,20-difluoro-14-methyl-10-[(methylsulfonyl)methyl]-13,18-dioxa-5,7,24-triazatetracyclo[17.3.1.1^2,6.1^8,12]pentacosa-1(23),2(25),3,5,8(24),9,11,19,21-nonaene] |  | 189 |  |  |  | 
CC1CCCOc2cc(ccc2F)-c2cc(ncc2F)Nc2cc(CS(C)(=N)=O)cc(n2)O1 (single isomer, unassigned) [Example 16, 3,20-difluoro-14-methyl-10-[(S-methylsulfonimidoyl)methyl]-13,18-dioxa-5,7,24-triazatetracyclo[17.3.1.1^2,6.1^8,12]pentacosa-1(23),2(25),3,5,8(24),9,11,19,21-nonaene] |  | 72 |  |  |  | 
CC1CCCOc2cc(ccc2F)-c2cc(ncc2F)Nc2cc(CS(C)(=N)=O)cc(n2)O1 (single isomer, unassigned) [Example 17, 3,20-difluoro-14-methyl-10-[(S-methylsulfonimidoyl)methyl]-13,18-dioxa-5,7,24-triazatetracyclo[17.3.1.1^2,6.1^8,12]pentacosa-1(23),2(25),3,5,8(24),9,11,19,21-nonaene] |  | 132 |  |  |  | 
CC1CCCCOc2cc(ccc2F)-c2cc(ncc2F)Nc2cc(CS(C)(=N)=O)cc(n2)O1 (single isomer, unassigned) [Example 21, 3,21-difluoro-14-methyl-10-[(S-methylsulfonimidoyl)methyl]-13,19-dioxa-5,7,25-triazatetracyclo[18.3.1.1^2,6.1^8,12]hexacosa-1(24),2(26),3,5,8(25),9,11,20,22-nonaene] |  | 1225 |  |  |  | 
CC1CCCCOc2cc(ccc2F)-c2cc(ncc2F)Nc2cc(CS(C)(=N)=O)cc(n2)O1 (single isomer, unassigned) [Example 22, 3,21-difluoro-14-methyl-10-[(S-methylsulfonimidoyl)methyl]-13,19-dioxa-5,7,25-triazatetracyclo[18.3.1.1^2,6.1^8,12]hexacosa-1(24),2(26),3,5,8(25),9,11,20,22-nonaene] |  | 251 |  |  |  | 
